Measurements as given in patent US4452812A, “Organic complex of platinum, its preparation and its use for treating malignant tumors” (Sanofi, priority 1980, dated 1984).

Test system: baboon
Experiment: Preliminary toxicological study in the baboon
Format: in vivo
Set-up: creatine level / Granulocytes / Platelets: unit not given here
Protocol: In order to find out the maximum tolerable dose, two baboons, identified by no 1 and no 2, received 100 mg/kg and 150 mg/kg respectively without prehydration. Hydration was performed on baboon no 3 which received a dose of 200 mg/kg.
The compound was injected into the femoral vein during 5 to 10 minutes. Baboon No. 3 (200 mg/kg) received 700 ml of physiological serum by intravenous route. Baboons Nos. 1 and 2 received 1000 ml by sub-cutaneous route.
Gastro-intestinal toxicity was the first type of toxicity to appear and generally manifested itself 1 to 2 hours after injection of the compound. […] D0 was the day of treatment and a sample was taken before the compound was injected.
The results on D0 were therefore control values.

[1] = baboon No 1, 100 mg/kg i.v., D2
[2] = baboon No 1, 100 mg/kg i.v., D6
[3] = baboon No 1, 100 mg/kg i.v., D16
[4] = baboon No 1, 100 mg/kg i.v., D30
[5] = baboon No 1, 100 mg/kg i.v., D37
[6] = baboon No 1, 100 mg/kg i.v., D38
[7] = baboon No 1, 100 mg/kg i.v., D41
[8] = baboon No 1, 100 mg/kg i.v., D48
[9] = baboon No 1, 100 mg/kg i.v., D57
[10] = baboon No 1, 100 mg/kg i.v., D62
[11] = baboon No 1, 100 mg/kg i.v., D76
[12] = baboon No 1, 100 mg/kg i.v., D79
[13] = baboon No 1, 100 mg/kg i.v., D85
[14] = baboon No 1, 100 mg/kg i.v., D90
[15] = baboon No 1, 100 mg/kg i.v., D100
[16] = baboon No 1, 100 mg/kg i.v., D105
[17] = baboon No 1, 100 mg/kg i.v., D106
[18] = baboon No 1, 100 mg/kg i.v., D111
[19] = baboon No 1, 100 mg/kg i.v., D122
[20] = baboon No 1, 100 mg/kg i.v., D129
[21] = baboon No 1, 100 mg/kg i.v., D134
[22] = baboon No 1, 100 mg/kg i.v., D140
[23] = baboon No 2, 150 mg/kg i.v., D1
[24] = baboon No 2, 150 mg/kg i.v., D4
[25] = baboon No 2, 150 mg/kg i.v., D11
[26] = baboon No 3, 200 mg/kg i.v., D4
[27] = baboon No 3, 200 mg/kg i.v., D6
[28] = baboon No 3, 200 mg/kg i.v., D12
[29] = baboon No 3, 200 mg/kg i.v., D15
[30] = baboon No 3, 200 mg/kg i.v., D18
[31] = baboon No 3, 200 mg/kg i.v., D24
[32] = baboon No 3, 200 mg/kg i.v., D30
[33] = baboon No 3, 200 mg/kg i.v., D40

Question: Which results are given for `NC1CCCCC1N.O=C([O-])CC(C(=O)[O-])C([O-])C(=O)[O-].[H+].[H+].[Pt+2]` (stereo not drawn) [PHIC, cis-isocitrato (1,2-diaminocyclohexane) platinum (II)]?
Answer: nephrotoxic effect (100 mg/kg i.v., absence of hydration): no nephrotoxic effect was observed; day on which creatinine levels return to normal values (200 mg/kg i.v. with hydration): 18 days; nephrotoxicity (200 mg/kg i.v. with hydration): nephtotoxicity is detected; vomiting (severity) (100-200 mg/kg i.v.): vomiting was not profuse; Quick plasma prothrombin time (baboon No 1, 100 mg/kg i.v., D1): 75%; Creatinine [1]: 110 μmols/l; Fibrinogen I [1]: 2.25 g/L; Quick plasma prothrombin time [1]: 80%; Creatinine [2]: 91 μmols/l; Fibrinogen I [2]: 2.40 g/L; Granulocytes [2]: 2480; Platelets [2]: 526000; Proaccelerin V [2]: 100%; Proconvertin VII + Stuart factor X [2]: 70%; Prothrombin II [2]: 95%; Quick plasma prothrombin time [2]: 65%; Weight [2]: 7.7 kg; Creatinine [3]: 105 μmols/l; Fibrinogen I [3]: 1.95 g/L; Granulocytes [3]: 4560; Platelets [3]: 414000; Quick plasma prothrombin time [3]: 95%; Weight [3]: 8.4 kg; Creatinine [4]: 138 μmols/l; Fibrinogen I [4]: 1.52 g/L; Granulocytes [4]: 3969; Platelets [4]: 414000; Quick plasma prothrombin time [4]: 85%; Creatinine [5]: 99 μmols/l; Fibrinogen I [5]: 1.46 g/L; Granulocytes [5]: 2989; Platelets [5]: 362000; Quick plasma prothrombin time [5]: 85%; Weight [5]: 8.35 kg; Creatinine [6]: 85 μmols/l; Fibrinogen I [6]: 1.85 g/L; Granulocytes [6]: 4824; Platelets [6]: 299000; Quick plasma prothrombin time [6]: 85%; Creatinine [7]: 102 μmols/l; Fibrinogen I [7]: 2.72 g/L; Granulocytes [7]: 4212; Platelets [7]: 371000; Quick plasma prothrombin time [7]: 100%; Creatinine [8]: 136 μmols/l; Fibrinogen I [8]: 2.70 g/L; Granulocytes [8]: 3696; Platelets [8]: 708000; Quick plasma prothrombin time [8]: 95%; Weight [8]: 7.6 kg; Creatinine [9]: 96 μmols/l; Fibrinogen I [9]: 2.67 g/L; Granulocytes [9]: 2498; Platelets [9]: 329000; Quick plasma prothrombin time [9]: 90%; Weight (baboon No 1, 100 mg/kg i.v., D58): 8.45 kg; Creatinine [10]: 136 μmols/l; Fibrinogen I [10]: 1.86 g/L; Granulocytes [10]: 3726; Platelets [10]: 378000; Quick plasma prothrombin time [10]: 50%; Creatinine [11]: 121 μmols/l; Fibrinogen I [11]: 1.75 g/L; Granulocytes [11]: 1071; Platelets [11]: 375000; Quick plasma prothrombin time [11]: 95%; Creatinine [12]: 138 μmols/l; Fibrinogen I [12]: 2.10 g/L; Granulocytes [12]: 2541; Platelets [12]: 382000; Quick plasma prothrombin time [12]: 95%; Weight (baboon No 1, 100 mg/kg i.v., D84): 7.93 kg; Creatinine [13]: 97 μmols/l; Fibrinogen I [13]: 2.08 g/L; Granulocytes [13]: 3599; Platelets [13]: 549000; Proaccelerin V [13]: 100%; Proconvertin VII + Stuart factor X [13]: 90%; Quick plasma prothrombin time [13]: 85%; Creatinine [14]: 96 μmols/l; Granulocytes [14]: 1917; Platelets [14]: 685000; Creatinine [15]: 110 μmols/l; Fibrinogen I [15]: 2.50 g/L; Granulocytes [15]: 3230; Platelets [15]: 340000; Quick plasma prothrombin time [15]: 95%; Creatinine [16]: 60 μmols/l; Fibrinogen I [16]: 2.25 g/L; Granulocytes [16]: 2030; Platelets [16]: 266000; Quick plasma prothrombin time [16]: 95%; Weight [16]: 8.59 kg; Creatinine [17]: 120 μmols/l; Fibrinogen I [17]: 2.20 g/L; Granulocytes [17]: 10120; Platelets [17]: 231000; Quick plasma prothrombin time [17]: 75%; Creatinine [18]: 102 μmols/l; Fibrinogen I [18]: 2.20 g/L; Granulocytes [18]: 1121; Platelets [18]: 345000; Proaccelerin V [18]: 100%; Proconvertin VII + Stuart factor X [18]: 39%; Prothrombin II [18]: 70%; Quick plasma prothrombin time [18]: 48%; Fibrinogen I [19]: 2.10 g/L; Granulocytes [19]: 1232; Platelets [19]: 348000; Quick plasma prothrombin time [19]: 100%; BUN (baboon No 1, 100 mg/kg i.v., D122, normal range 3-7 mmol/l): 4.5 mmol/L; Creatinine [20]: 90 μmols/l; Fibrinogen I [20]: 2.15 g/L; Granulocytes [20]: 5406; Platelets [20]: 508000; Quick plasma prothrombin time [20]: 100%; Weight (baboon No 1, 100 mg/kg i.v., D133): 7.65 kg; Creatinine [21]: 126 μmols/l; Granulocytes [21]: 7245; Platelets [21]: 580000; Creatinine [22]: 114 μmols/l; Fibrinogen I [22]: 2.50 g/L; Granulocytes [22]: 4794; Platelets [22]: 441000; Quick plasma prothrombin time [22]: 100%; creatine level (baboon No 2, 150 mg/kg i.v.): 1552; death (baboon No 2, 150 mg/kg i.v.): died on D11; food and water intake (baboon No 2, 150 mg/kg i.v.): neither eaten nor drunk for 11 days; Creatinine [23]: 96 μmols/l; Fibrinogen I [23]: 1.46 g/L; Granulocytes [23]: 9672; Platelets [23]: 261000; Proaccelerin V [23]: 70%; Proconvertin VII + Stuart factor X [23]: 62%; Prothrombin II [23]: 42%; Quick plasma prothrombin time [23]: 60%; Creatinine [24]: 245 μmols/l; Fibrinogen I [24]: 2.82 g/L; Granulocytes [24]: 1988; Platelets [24]: 212000; Quick plasma prothrombin time [24]: 85%; Creatinine [25]: 1552 μmols/l; Fibrinogen I [25]: 4.20 g/L; Granulocytes [25]: 555; Platelets [25]: 174000; Proaccelerin V [25]: 100%; Proconvertin VII + Stuart factor X [25]: 55%; Prothrombin II [25]: 55%; Quick plasma prothrombin time [25]: 55%; Weight [25]: 5.5 kg; Creatinine [26]: 140 μmols/l; Fibrinogen I [26]: 2.70 g/L; Granulocytes [26]: 4536; Platelets [26]: 70000; Proaccelerin V [26]: 100%; Proconvertin VII + Stuart factor X [26]: < 5%; Prothrombin II [26]: 30%; Quick plasma prothrombin time [26]: 10%; Weight [26]: 6.25 kg; Creatinine [27]: 350 μmols/l; Fibrinogen I [27]: 3.00 g/L; Granulocytes [27]: 5236; Platelets [27]: 208000; Proaccelerin V [27]: 100%; Proconvertin VII + Stuart factor X [27]: 25%; Prothrombin II [27]: 25%; Quick plasma prothrombin time [27]: 30%; Creatinine [28]: 646 μmols/l; Fibrinogen I [28]: 4.80 g/L; Granulocytes [28]: 7905; Platelets [28]: 241000; Quick plasma prothrombin time [28]: 85%; Weight [28]: 5.31 kg; Creatinine [29]: 265 μmols/l; Fibrinogen I [29]: 3.85 g/L; Granulocytes [29]: 3550; Platelets [29]: 114000; Quick plasma prothrombin time [29]: 90%; Creatinine [30]: 118 μmols/l; Fibrinogen I [30]: 2.60 g/L; Granulocytes [30]: 722; Platelets [30]: 312000; Quick plasma prothrombin time [30]: 100%; Creatinine [31]: 97 μmols/l; Fibrinogen I [31]: 2.00 g/L; Granulocytes [31]: 4872; Platelets [31]: 366000; Quick plasma prothrombin time [31]: 100%; Weight [31]: 5.6 kg; Creatinine [32]: 104 μmols/l; Fibrinogen I [32]: 2.25 g/L; Granulocytes [32]: 10752; Platelets [32]: 457000; Quick plasma prothrombin time [32]: 95%; Weight [32]: 5.9 kg; Creatinine [33]: 94 μmols/l; Fibrinogen I [33]: 1.50 g/L; Granulocytes [33]: 4731; Platelets [33]: 299000; Quick plasma prothrombin time [33]: 95%; Weight [33]: 6.33 kg; toxicity (in words) (baboons): Extremely low toxicity
